According to PubChem BioAssay (NCI):
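Cultured in 96-well plates, cells were exposed to test compound for 48 hours across five concentrations. The concentration for 50% growth inhibition is given as GI50. TGI is the concentration that stops growth completely.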

Assays:
Experiment in all cases: DTP human tumour cell line panel, 48 h
NCI-H23 lung = tested on: NCI-H23 lung
NCI-H460 lung = tested on: NCI-H460 lung
NCI-H522 lung = tested on: NCI-H522 lung
NCI/ADR-RES ovarian = tested on: NCI/ADR-RES ovarian
OVCAR-3 ovarian = tested on: OVCAR-3 ovarian
OVCAR-4 ovarian = tested on: OVCAR-4 ovarian
OVCAR-5 ovarian = tested on: OVCAR-5 ovarian
PC-3 prostate = tested on: PC-3 prostate
RPMI-8226 leukemia = tested on: RPMI-8226 leukemia
RXF 393 renal = tested on: RXF 393 renal
SF-268 CNS = tested on: SF-268 CNS
SF-295 CNS = tested on: SF-295 CNS
SF-539 CNS = tested on: SF-539 CNS
SK-MEL-2 melanoma = tested on: SK-MEL-2 melanoma
SK-MEL-28 melanoma = tested on: SK-MEL-28 melanoma
SK-MEL-5 melanoma = tested on: SK-MEL-5 melanoma
SK-OV-3 ovarian = tested on: SK-OV-3 ovarian
SN12C renal = tested on: SN12C renal
SNB-19 CNS = tested on: SNB-19 CNS
SNB-75 CNS = tested on: SNB-75 CNS
SR leukemia = tested on: SR leukemia
SW-620 colon = tested on: SW-620 colon
T-47D breast = tested on: T-47D breast
TK-10 renal = tested on: TK-10 renal
U251 CNS = tested on: U251 CNS
UACC-257 melanoma = tested on: UACC-257 melanoma
UACC-62 melanoma = tested on: UACC-62 melanoma
UO-31 renal = tested on: UO-31 renal

## CCOC(=O)c1c(NC(=O)COc2cccc3cccnc23)sc(C(=O)N(C)C)c1C
NCI-H23 lung
  GI50: 14.7 µM
  TGI: 36.5 µM
NCI-H460 lung
  GI50: 13.6 µM
  TGI: 33.3 µM
NCI-H522 lung
  GI50: 13.8 µM
  TGI: 30.3 µM
NCI/ADR-RES ovarian
  GI50: 6 µM
  TGI: 34.3 µM
OVCAR-3 ovarian
  GI50: 20.8 µM
  TGI: 69.8 µM
OVCAR-4 ovarian
  GI50: 22.1 µM
  TGI: 65.8 µM
OVCAR-5 ovarian
  GI50: 17.4 µM
  TGI: 37.3 µM
PC-3 prostate
  GI50: 17.5 µM
  TGI: 63 µM
RPMI-8226 leukemia
  GI50: 7.93 µM
  TGI: 36.8 µM
RXF 393 renal
  GI50: 13 µM
  TGI: 34.2 µM
SF-268 CNS
  GI50: 22.4 µM
  TGI: 82 µM
SF-295 CNS
  GI50: 13.5 µM
  TGI: 30.9 µM
SF-539 CNS
  GI50: 21.9 µM
  TGI: 48 µM
SK-MEL-2 melanoma
  GI50: 18.5 µM
  TGI: 45.5 µM
SK-MEL-28 melanoma
  GI50: 16.9 µM
  TGI: 33.4 µM
SK-MEL-5 melanoma
  GI50: 8.8 µM
  TGI: 21.1 µM
SK-OV-3 ovarian
  GI50: 36.2 µM
  TGI: > 100 µM
SN12C renal
  GI50: 33.5 µM
  TGI: > 100 µM
SNB-19 CNS
  GI50: 33.9 µM
  TGI: > 100 µM
SNB-75 CNS
  GI50: 19.1 µM
  TGI: 63.1 µM
SR leukemia
  GI50: 31.6 µM
  TGI: 83.5 µM
SW-620 colon
  GI50: 25.8 µM
  TGI: 72.4 µM
T-47D breast
  GI50: 5.24 µM
  TGI: 27.8 µM
TK-10 renal
  GI50: 41 µM
  TGI: > 100 µM
U251 CNS
  GI50: 25.2 µM
  TGI: > 100 µM
UACC-257 melanoma
  GI50: 18.6 µM
  TGI: 48 µM
UACC-62 melanoma
  GI50: 11.8 µM
  TGI: 27.9 µM
UO-31 renal
  GI50: 21.4 µM
  TGI: 55.6 µM
